Series [1] deals with J774.2 murine macrophages. Briefly: Nitric oxide production of stimulated macrophages. The settings on record: 24 hours, LPS and stimulated, 32 μM Ac2-26 or epitope equivalent. Type of series: cell-based, mouse. The procedure: Macrophage culture and characterization: J774.2 murine macrophages (Sigma-Aldrich) were expanded at 4-9×10^5 cells/mL in growth media consisting of Dulbecco's Modified Eagle's Medium (Sigma-Aldrich) containing 4.5 g/L glucose, 2 mM L-glutamine, 10% v/v FBS, 100 U/m penicillin, and 100 μg/mL streptomycin. Cells were passaged using Accutase™ (StemCell Technologies) and used at passage 6-9 for all experiments. The cells were detached with Accutase™ and gentle scraping, counted, and re-suspended in flow cytometry buffer containing 2% w/v bovine serum albumin (BSA, heat shock fraction free of proteases, globulin, and fatty acids, Sigma-Aldrich) and 0.1% w/v sodium azide (Sigma-Aldrich). To minimize non-specific binding of immunoglobin to Fc receptors, macrophages were incubated with anti-mouse CD16/32 antibody (TrueStain FcX™, Biolegend) at 1 μg/1×10^5 cells for 10 minutes at 4° C. APC anti-mouse CD11b antibody or APC Armenian hamster IgG isotype control antibody (Biolegend) were added at 0.4 μg/1×10^5 cells, FPR2 antibody (Novus Biologics) was added at […], and all samples were incubated for 30 minutes at 4° C. The cells were washed once with flow cytometry buffer by centrifugation at 300×g. FPR2 samples were further treated with goat anti-rabbit Alexa Fluor 488 secondary antibody (Invitrogen) at 2 μg/1×10^5 cells for 20 minutes at 4° C., followed by a wash step. Unstained macrophages served as controls and contained 7AAD viability staining solution (Biolegend) at 0.1 μg/1×10^5. All samples were suspended in 4% paraformaldehyde (Electron Microscopy Sciences) in PBS until analysis. […] All samples were analyzed using Attune NxT Acoustic Focusing Cytometer (Thermo Fisher) with at least 2000 events counted per condition.
Therapeutic effects of ApoA1-Ac2-26 PAs: 10% ROS- and MMP-Ac2-26 PAs, as well as Ac2-26 peptide were added together with 10 μg/mL LPS at 32 μM Ac2-26 to macrophages. […] Concerning the quantification of NO, the reducing solution made of KI in acetic acid and water provides an excess of I− that reacts with nitrite yielding ·NO. […]

Series [2] can be described thus: Small angle x-ray scattering (SAXS) of PA nanofibers. The settings on record: 5 mM in PBS. Type of series: physicochemical. On the procedure: Small angle x-ray scattering (SAXS): SAXS characterization of the PA nanofibers was performed at the Advanced Photon Source in the Argonne National Laboratory on beamline 5-ID-D, DuPont-Northwestern-Dow Collaborative Access Team Synchrotron Research Center. Samples were prepared at 5 mM in PBS solution, aged at least 24 hours at 4° C., and analyzed in 1.5 mm quartz capillaries (Charles Supper) at 17 keV with a charged couple device photon detector located 245 cm behind the sample. Scattering intensities were collected using wave vector q range of 0.0024 to 0.40 Å^−1. q represents the scattering vector and is calculated as q=4π sin (θ)/λ, with θ as the scattering angle between the incident beam and detector and […] the X-ray wavelength. The plots of scattering intensity versus q were obtained using NIST software Igor Pro v8. The scattering intensities of PBS were subtracted from the PA samples using the Irena SAS macro, and the resulting plots were fitted using NCNR Analysis macro to a polydisperse core shell cylinder model.

Series [3] in a line: TEM characterization of PA nanofibers for diameter and length (Example 3). Type of series: physicochemical. The note with it: 30 measurements from three images. On the procedure:
Samples at 1 mM in PBS were prepared for TEM by plating on copper supports covered with thin carbon foil 400-mesh that were treated with glow discharge. […] Due to the overlapping fibers, automated tools including FiberApp could not be used to analyze the nanofibers. Instead, the TEM images were analyzed manually for nanofiber diameter and length using ImageJ software. Cryogenic TEM of samples was also performed using a JEOL 1230 at 100 kV accelerating voltage and Gatan 831 CCD camera. […] Samples were prepared at 1 mM in PBS blotted once for 3 seconds before plunging into liquid ethane using a Vitrobot Mark III (FEI) vitrification robot.

With “C16-V2A2 (SEQ ID NO: 8)-E2-NH2 [Diluent PA]”, the “macrophage activation, nitric oxide production relative to the stimulated control” value in series [1] is “did not cause significant decreases in nitric oxide production”. Moreover, in series [2], the “SAXS slope of Guinier regime in the low q region” value was −1. Moreover, in series [3], the “Diameter (nm) Average” value is on record as 12.3 nm, the “Diameter (nm) Median” value is 12.4 nm, the “Length (nm) Average” value turned out to be 3024.4 nm and the “Length (nm) Median” value was found to be 2541.4 nm. In series [3] (listed as diluent), the “Diameter (nm) Average” value is 12.3±3.1 nm and the “Length (nm) Median” value is 2541 nm.

Source of the values: US12214076B2, “Drug delivery vehicles for atherosclerosis nanomedicine” (Northwestern University, priority 2019, dated 2025).
